From patent publication US20140294729A1, “METHODS FOR IDENTIFICATION AND USE OF AGENTS TARGETING CANCER STEM CELLS” (Whitehead Institute for Biomedical Research, priority 2008, published 2014)
“Also recorded” adds a separate entry of the source.

What was measured:
HMLEshEcad cells = assay: Resistance to cytotoxic agents, immortalized HMLEshCntrl vs HMLEshEcad (MTS viability); type: cell-based, human; conditions: three concentrations, FIG. 2B
Description: (§1) FIGS. 2A-2D depict that passage through the EMT leads to resistance to conventional chemotherapy drugs. FIG. 2A depicts dose response curves of transformed HMLERshCntrl (light gray line) and HMLERshEcad (dark gray line) cells treated with Paclitaxel and Doxorubicin. Dotted line denotes the 50% fraction surviving. […] FIG. 2B depicts the response of immortalized cells to chemotherapy drugs. HMLEshCntrl and HMLEshEcad cells were treated with the indicated drugs at three concentrations for 3 days and assayed for viability using the MTS assay. While Doxorubucin, Actinomycin D, Paclitaxel and Campthotecin are chemotherapeutic drugs, Staurosporine is a general kinase inhibitor that potently induce apoptosis. FIGS. 2C and 2D depict paclitaxel treatment leads to selective expansion of a minority cell population that has undergone an EMT. Control HMLE cells and GFP expressing HMLEshEcad cells were mixed at a ratio of 20:1 and seeded onto 6-well plates in triplicate. DMSO or Paclitaxel at 2.5 nm or 10 nm concentration was added onto the mixed cell populations 1 day after seeding followed by a 3 day incubation. The number of GFP-positive cells at the end of treatment were analyzed by flow cytometry. […] Note the increase in GFP positivity from 5% to 14% upon […] Paclitaxel treatment.
However, we postulated that the differential drug sensitivity observed was, rather, a consequence of the respective differentiation states of the immortalized cells from which the cancer cell lines were derived. To directly examine this hypothesis, we treated HMLEsiGFP and HMLEsiEcad cells for a period of […] with a series of chemical compounds at 3 different concentrations each. Included in these compounds were the established chemotherapy drugs Doxorubicin, Paclitaxel, Actinomycin D, Camptothecin as well as a broad kinase inhibitor, Staurosporine.
(§2) Doxorubicin, paclitaxel, actinomycin D, campthotecin and staurosporine were purchased from Sigma and dissolved in dimethyl sulfoxide (dmso). 5000 cells in 100 ul of medium were plated per well in 96-well plates. 24 hrs after seeding, compounds at the indicated concentration were added to wells (5 wells per each concentration). Dmso treatment was used as negative control. Cell viability was measured after 72 hrs using the CellTiter96 AQueous Assay (Promega) according to manufacturer's instructions. Dose response curves were generated with GraphPad Prism software (GraphPad Software, Inc.).

HMLERshEcad cells [1] = assay: Resistance to cytotoxic agents, transformed HMLERshCntrl vs HMLERshEcad dose response; type: cell-based, human; conditions: FIG. 2A
Description: as §1
Since the HMLERsiEcad cells have a 100-fold increase in the frequency of cells capable of seeding tumors, we examined their response to two commonly used chemotherapy drugs, relative to HMLERsiGFP controls. We treated cultured HMLERsiGFP and HMLERsiEcad cells for a period of 3 days with either doxorubicin or paclitaxel, at various concentrations.
as §2

[2] = tested on: breast CSC and progenitor genes; assay: Gene set enrichment analysis of stem-like cell gene sets after treatment; type: cell-based; conditions: in comparison with paclitaxel treatment, FIG. 16
From the text: Gene set enrichment analysis was used to determine whether three previously reported sets of genes associated with stem-like cells were repressed in response to salinomycin in comparison with paclitaxel treatment. Graphed are the Kolmogorov-Smimov enrichment scores versus Gene ranks based on differential expression. P-values reflecting statistical significance for each analysis are shown.
Gene set enrichment analysis was used to determine whether three previously reported sets of genes associated with stem-like cells were repressed in response to salinomycin in comparison with paclitaxel treatment. Graphed are the Kolmogorov-Smirnov enrichment scores versus Gene ranks based on differential expression. P-values reflecting statistical significance for each analysis are shown. The three previously reported gene signatures are: CD44+CD24− IGS (Liu et al., 2007), CD44+CD24− (Shipitsin et al., 2007) and Mammosphere (Dontu et al., 2003). (FIG. 16.)

HMLE-Twist cells = assay: Dose-response viability of HMLEshCntrl vs HMLE-Twist cells; type: cell-based, human; conditions: EMT induced by Twist, FIG. 4B
Description: (§3) FIG. 4A depicts dose response curves of HMLEshCntrl (A, light gray curve) and HMLEshEcad (A, dark gray curve) cells treated with the 8 compounds identified during the initial screen. 1000 cells of each line were seeded onto 384 well plates and treated with 8 different concentrations of compounds within a 2.5 log range. The cell viability after 3 day treatment was measured by Cell-Titer-Glo. […] FIG. 4B depicts dose response curves of HMLEshCntrl (curve with square data points) and HMLE-Twist (curve with triangular data points) cells treated with the same compounds as in (A). Note that selectivity of Salinomycin, Abamectin, Etoposide and Nigericin (Top, Left-to-Right) is retained even though a different method of EMT induction is used. […] 1 Day after seeding DMSO, Salinomycin (1.25 or 5 μM) or Abamectin (0.25 or 1.25 μM) was added at the indicated concentration. As the GFP vector contains a Blasticidin resistance gene, we used Blasticidin treatment as a positive control for the expansion of GFP-expressing control HMLE cells. After 3 day incubation the mix population of cells were analyzed by flow cytometry and the percentage of GFP-positive cells were determined. […] FIG. 4D depicts dose response curves of transformed HMLERshCntrl (light gray line) and HMLERshEcad (dark gray lines) cells treated with Salinomycin and Abamectin. Dotted line denotes the 50% fraction surviving.
Individual compounds were purchased from Sigma and dissolved in DMSO with the exception of nigericin which was dissolved in 100% ethanol. Activity of the compounds were quantified by generating dose-response curves for HMLE-shCntrl, HMLE-shEcad and HMLE-Twist under the same cell density and culture conditions described for the initial screen, using the 384-well plate based system.

[3] = tested on: SUM159, MDA-MB-231 and T47D cells; assay: Dose response of breast cancer cell lines differing in CSC marker expression; type: cell-based; conditions: range of doses, FIG. 5B
From the text: FIG. 5A depicts flow cytometry analysis of Sum159, MDA-MB-231 and T47D cell lines with respect to cell surface expression of CD44 and CD24. Note that while the majority of cells in Sum159 and MDA-MB-231 line contain large amounts of CSCs, T47D cells have very few such cells. FIG. 5B depicts dose response curves of Sum159, MDA-MB-231 and T47D cell treated with Salinomycin.
Cancer stem cells are resistant to a wide spectrum of treatments and chemotherapeutics. Since the compounds identified using the described screening approach preferentially target epithelial cells having undergone EMT, we wished to determine whether such compounds might also serve to target cancer stem cells.

HMLERshEcad cells [4] = assay: Dose response of transformed HMLERshCntrl vs HMLERshEcad cells to screen hits; type: cell-based, human; conditions: range of concentrations, FIG. 4D
Description: as §3

Row | Compound | resistance of HMLEshEcad cells relative to HMLEshCntrl control cells (HMLEshEcad cells) | IC50 for HMLERsiEcad cells relative to IC50 for HMLERsiGFP cells (HMLERshEcad cells [1]; 3 days, various concentrations) | resistance of HMLERshEcad cells compared to HMLERshCntrl cells (HMLERshEcad cells [1]) | resistance of HMLERshEcad cells compared to HMLERshCntrl cells (HMLERshEcad cells [1]; listed as Paclitaxel) | expression of clinically relevant breast CSC and progenitor genes [2] | selectivity for HMLE-Twist cells vs HMLEshCntrl; dose-response curves compared with HMLEshEcad (HMLE-Twist cells) | sensitivity of CSC-enriched SUM159 and MDA-MB-231 relative to CSC-poor T47D cells [3] | selective toxicity for HMLERshEcad (MT tumorigenic) cells (HMLERshEcad cells [4]) | selective toxicity for HMLERshEcad (MT tumorigenic) cells (HMLERshEcad cells [4]; listed as Salinomycin)
1 | CC(=O)O[C@H]1C(=O)[C@@]2(C)[C@H]([C@H](OC(=O)c3ccccc3)[C@]3(O)C[C@H](OC(=O)[C@H](O)[C@@H](NC(=O)c4ccccc4)c4ccccc4)C(C)=C1C3(C)C)[C@]1(OC(C)=O)CO[C@@H]1C[C@@H]2O [paclitaxel] | increased resistance | significantly higher | significantly more resistant | more resistant |  |  |  |  | 
2 | CC[C@@H](C(=O)[C@@H](C)[C@@H](O)[C@H](C)[C@@H]1O[C@@H]([C@@H](CC)C(=O)O)CC[C@@H]1C)[C@H]1O[C@]2(C=C[C@@H](O)[C@]3(CC[C@@](C)([C@H]4CC[C@](O)(CC)[C@H](C)O4)O3)O2)[C@H](C)C[C@@H]1C [salinomycin] |  |  |  |  | reduces the expression | is retained | positively correlated; also recorded: more sensitive | selectively toxic | remains
